For test [1], the target named is T1, OfHex1 (Ostrinia furnacalis, UniProt Q06GJ0, E328Q).
T1 construct: pPIC9, secreted from Pichia pastoris GS115; HisTrap and Mono Q purified; dimer with N-terminal zincin-like and C-terminal catalytic domain (residues 207-594)
T1 sequence (Q06GJ0 23-594 E328Q): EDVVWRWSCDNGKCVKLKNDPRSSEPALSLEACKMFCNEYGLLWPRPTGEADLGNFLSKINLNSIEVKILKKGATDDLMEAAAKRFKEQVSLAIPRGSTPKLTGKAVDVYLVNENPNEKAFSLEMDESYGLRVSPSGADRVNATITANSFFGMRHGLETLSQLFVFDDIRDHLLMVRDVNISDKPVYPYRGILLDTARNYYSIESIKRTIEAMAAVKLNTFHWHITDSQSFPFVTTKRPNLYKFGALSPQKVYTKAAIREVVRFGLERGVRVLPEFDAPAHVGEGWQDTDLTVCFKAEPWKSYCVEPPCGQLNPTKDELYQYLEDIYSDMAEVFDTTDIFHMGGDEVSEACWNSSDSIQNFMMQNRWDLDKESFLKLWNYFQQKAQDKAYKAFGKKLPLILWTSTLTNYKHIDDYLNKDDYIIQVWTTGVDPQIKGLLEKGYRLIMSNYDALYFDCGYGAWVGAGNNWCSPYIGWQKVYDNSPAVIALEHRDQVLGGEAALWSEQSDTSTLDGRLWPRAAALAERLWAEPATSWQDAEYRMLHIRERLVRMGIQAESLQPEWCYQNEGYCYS
Put plainly: inhibition of 4MU-β-GlcNAc hydrolysis, Dixon plot. Format: biochemical. The text has this: (§1) inhibition of 4MU-β-GlcNAc hydrolysis, Dixon plot on OfHex1

The target of test [2] is T2, OfHex1 (Ostrinia furnacalis, UniProt Q06GJ0, E328A).
T2 construct: pPIC9, secreted from Pichia pastoris GS115; HisTrap and Mono Q purified; dimer with N-terminal zincin-like and C-terminal catalytic domain (residues 207-594)
T2 sequence (Q06GJ0 23-594 E328A): T1 sequence (Q06GJ0 23-594 E328Q)
In words: inhibition of 4MU-β-GlcNAc hydrolysis, Dixon plot. Format: biochemical.
Source text: as §1

The structures appear in SMILES notation.

By Ki is commonly meant the dissociation constant of the complex between target and ligand, obtained from inhibition or displacement.

Take `CC(=O)N[C@@H]1[C@@H](O)[C@H](O[C@@H]2O[C@H](CO)[C@@H](O[C@@H]3O[C@H](CO)[C@@H](O[C@@H]4O[C@H](CO)[C@@H](O)[C@H](O)[C@H]4[N+](C)(C)C)[C@H](O)[C@H]3NC(C)=O)[C@H](O)[C@H]2NC(C)=O)[C@@H](CO)O[C@H]1O` [TMG-chitotriomycin]: the values for the Ki on OfHex1 [1] and at OfHex1 [2] were 101 nM and 2710 nM, respectively.

The values are drawn from paper PMC3531433, “Structural Insights into Cellulolytic and Chitinolytic Enzymes Revealing Crucial Residues of Insect β-N-acetyl-D-hexosaminidase” (PLoS ONE, 2012).
